Experimental findings from patent US20220160669A1, “PARENTERAL NUTRITION FORMULATION” (BAXTER INTERNATIONAL INC., priority 2020, published 2022) are described below.

Common to all, as to assay type: in vivo, pig
Common to all, as to design: key: + denotes a positive effect (compared to standard PN); ++ a very positive effect; − denotes no difference

In assay [1] the test system is Neonatal Yorkshire/Landrace cross bred piglets. As to the kind of experiment: Brain structure development by MRI. Particulars: compared to standard PN. An excerpt:
On study day 9, the piglets were submitted to Magnetic Resonance Imaging (MRI) using an Agilent 9.4 Tesla MRI system (Santa Clara, Calif.) to assess brain structural development and body composition. Heart rate and respiration were monitored during the entire MRI scan. For anatomic assessment of the brain targeting the hippocampus, images were obtained using a 3D T1-weighted magnetization prepared gradient-echo sequence: repetition time=1,900 ms; echo time=2.48 ms; inversion time=900 ms, flip angle=9°, matrix=256×256 (interpolated to 512×512), slice thickness=1.0 mm. For body composition assessment, a multi-slice, spin-echo technique was used to image the truncal area (longissimus fat/muscle): echo time=20 ms; recovery time=400 ms with four-signal averaging. […] Total scanning time was approximately 60 minutes to include both brain and body composition scanning. The MRI images were analyzed using OsiriX (Bernex, Switzerland). […] The average body weight and abdominal girth of the piglets in the Study Groups was also monitored.

The subject of assay [2] is Pro-inflammatory cytokines. As to the kind of experiment: Pro-inflammatory cytokines, summary (site not stated). The note with it: compared to standard PN. An excerpt:
Neonatal Yorkshire/Landrace cross bred piglets (n=72; six at a time from the same litter, repeating 12 times) were obtained from Oak Hill Genetics (Ewing, Ill.) after 48-hour sow reared for colostrum consumption and iron supplementation.
The influence of the respective supplements on inflammation was investigated by determining Il-6, Il-1beta, TNF-alpha and Il-10 serum levels in the intervention groups compared to EN and PN according to Milo et al., Effects of Short-Chain Fatty Acid-Supplemented Total Parenteral Nutrition on Intestinal Pro-Inflammatory Cytokine Abundance. Digestive Diseases and Sciences 2002; 47:2049-2055. Jejunal and ileal samples were homogenized in double-distilled water, and the Bradford protein assay (Biorad, Hercules, Calif., USA) was performed on homogenate and plasma samples. Protein (30 μg) from each sample was denatured by boiling, and proteins were separated by size using 12.5% sodium dodecyl sulfate polyacrylamide gel electrophoresis. Separated proteins were transferred to polyvinylidene difluoride membranes (Biorad) using a semidry transfer apparatus (Biorad). Western blot analysis for TNF-alpha, IL-1beta, Il-10 and IL-6 was performed using porcine-specific polyclonal antibodies (Endogen, Woburn, Mass., USA). A mouse anti-pig monoclonal TNF-alpha antibody was used to detect TNF-alpha ([…]). Rabbit anti-pig polyclonal antibodies specific for IL-1beta and IL-6 were used to detect IL-1beta (17,500 kDa), Il-10 (18,600 kDa) and IL-6 (26,000 kDa). Membranes were developed using the Opti-4CN kit (Biorad) and photographed using the FOTO/Analyst Image Analysis System (Fotodyne, Inc., Hartland, Wis., USA). Densitometry of TNF-alpha, IL-1beta, IL-6, and Il-10 was performed using Collage Image Analysis Software 4.0 (Fotodyne, Inc.). Results are shown in FIG. 15 (Il-6), FIG. 16 (Illbeta), FIG. 17 (TNF-alpha) and FIG. 18 (Il-10).

In assay [3] the test system is Neonatal Yorkshire/Landrace cross bred piglets. As to the kind of experiment: Cognitive assessment by eyeblink conditioning. Particulars: compared to standard PN. An excerpt:
Eyeblink conditioning is an established Pavlovian method to assess the cerebellum and associated brainstem circuitry with hippocampus involvement that are essential for learning and memory. The eyeblink conditioning procedure took place in a sound-attenuating chamber. A fan was inside the chamber and ran throughout the experiment for ambient noise (70 dB). A speaker mounted to the wall of the chamber delivered the tone conditioned stimulus (CS). A small plastic air puff delivery nozzle (San Diego Instruments, San Diego, Calif.) was secured at approximately 2 cm from the piglet's left eye to deliver the unconditioned stimulus (US). After adaptation to the conditioning apparatus on study day 3, a total of five CS-US conditioning sessions occurred on study days 4-8 following. Each conditioning session consisted of 90 CS-US paired trials and 10 CS alone trials for a total of 100 trials/session. Every tenth trial was a CS alone trial. The CS-US paired trials included: a 500 ms auditory CS (1 kHz, 85 dB tone), a 400 ms interstimulus interval (ISI), followed by a 100 ms corneal airpuff US (10 psi). Both the CS and US were co-terminated at the exact same time. The CS alone trials consisted of a 500 ms auditory CS (1 kHz, 85 dB tone) only. There were random inter-trial intervals of 20 seconds throughout each session. Each conditioning session lasted no longer than 35 minutes. The San Diego Instruments eyeblink software was used to record conditioning session moment-to-moment infrared-reflectance data.

The test system is the same in assay [4]. Put plainly: Duodenal mucosal resistance (Ussing chamber), PN-fed neonatal piglets. The note with it: 10 days, compared to standard PN.

Consider `CCCCCCCCCCCCCCCC(=O)OCC(COC(=O)CCC)OC(=O)CCCCCCCCCCCCCCC` (stereo not shown) [1,2-Dipalmitoyl 3-butyryl glycerol], for which the Brain result in assay [1] (10 mmol/L in PN) is reported as “−”. The Pro-inflammatory cytokines entry in assay [2] (10 mmol/L in PN) was “+”. For the same molecule, the Cognitive result in assay [3] (10 mmol/L in PN) was “−”. Besides, the Tight junctions result in assay [4] (10 mmol/L in PN) is “−”.
`CCCC(=O)OCC(COC(=O)CCC)OC(=O)CCC` [Tributyrin]: the Brain entry in assay [1] (10 mmol/L in PN) and in assay [1] (30 mmol/L in PN) was “−” each time. Also, the Pro-inflammatory cytokines result in assay [2] (10 mmol/L in PN) is “−”; in assay [2] (30 mmol/L in PN), “+”. Further, the Cognitive entry in assay [3] (10 mmol/L in PN) and in assay [3] (30 mmol/L in PN) was “−” in each case. The Tight junctions result in assay [4] (10 mmol/L in PN) and in assay [4] (30 mmol/L in PN) was “−” each time.
For the molecule “L-arginine, butanoate (3:4) [Arginine butyrate]”, the Brain result in assay [1] (10 mmol/L in PN) is recorded as “−”. Further, the Pro-inflammatory cytokines result in assay [2] (10 mmol/L in PN) was “++”. The Cognitive result in assay [3] (10 mmol/L in PN) is “−”. For the same molecule, the Tight junctions entry in assay [4] (10 mmol/L in PN) is recorded as “++”.
